Laboratory results reported in patent US20060116419A1, “Nf-kb inhibitors” (priority 2002, published 2006).

Assays:
IκB-α = assay: Degradation of IκB-α in cells activated with pro-inflammatory stimuli (Western blot); assay type: cell-based; conditions: human monocytes and other mammalian cells; activation with pro-inflammatory stimuli (e.g. TNF-α, LPS)
Protocol: NF-κB activity may also be measured in an electrophoretic mobility shift assay (EMSA) to assess the presence of NF-κB protein in the nucleus. The cells of interest are cultured to a density of 1×10^6/mL. The cells are harvested by centrifugation, washed in PBS without Ca^2+ and Mg^2+ and resuspended in PBS with Ca^2+ and Mg^2+ at 1×10^7 cells/mL. To examine the effect of compound on the activation of NF-κB, the cell suspensions are treated with various concentrations of drug or vehicle (DMSO, 0.1%) for 30 min. at 37° C. prior to stimulation with TNF-α (5.0 ng/mL) for an additional 15 min. Cellular and nuclear extracts are prepared follows. Briefly, at the end of the incubation period the cells (1×10^7 cells) are washed 2× in PBS without Ca^2+ and Mg^2+. The resulting cell pellets are resuspended in 20 uL of Buffer A (10 mM Hepes (pH 7.9), 10 mM KCl, 1.5 mM MgCl2, 0.5 mM dithiothreitol (DTT) and 0.1% NP-40) and incubated on ice for 10 min. […] All samples are stored at −80° C. until analyzed. The protein concentration of the extracts is determined according to the method of Bradford (Bradford, 1976) with BioRad reagents.
The effect of compounds on the phosphorylation of IκB may be monitored in a Western blot. […] Immunoreactive bands are detected using the Enchanced Chemiluminescence (ECL) assay system (Amersham Corp., Arlington Heights, Ill.).

[1] = Oral bioavailability in mouse; assay type: in vivo
[2] = system: human primary synovial fibroblasts; assay: Mediator production by stimulated human primary synovial fibroblasts; assay type: cell-based
Protocol: The effect of IKK-β inhibitors on primary synovial fibroblast mediator production was assesses as follows: Primary cultures of human RSF were obtained by enzymatic digestion of synovium obtained from adult patients with rheumatoid arthritis as previously described (Roshak et al., 1996b). Cells were cultured in Earl's Minimal Essential Medium (EMEM) which contained 10% fetal bovine serum (FBS), 100 units/ml penicillin and 100 μg/ml streptomycin (GIBCO, Grand Island, N.Y.), at 37° C. and 5% CO2. Cultures were used at passages 4 through 9 in order to obtain a more uniform type B fibroblast population. For some studies, fibroblasts were plated at 5×10^4 cells/mL in 16 mm (diameter) 24 well plates (Costar, Cambridge, Mass.). Cells (70-80% confluence) were exposed to IL-1β (1 ng/mL) (Genzyme, Cambridge, Mass.) for the designated time. Drugs in DMSO vehicle (1%) were added to the cell cultures 15 minutes prior to the addition of IL-1. Studies were conducted 3-4 times using synovial cells from different donors. RSF cellular extracts were prepared from cells treated as described above. Briefly, human RSF were removed by trypsin/EDTA, washed, and harvested by centrifugation. Cellular extracts were prepared as previously described (Dignam et al., 1983; Osborn, et al., 1989). Briefly, at the end of the incubation period the cells (1×10^7 cells) were washed 2× in PBS without Ca^2+ and Mg^2+. […]

[3] = In vivo DMPK profile in preclinical species; conditions: preclinical species tested, compared with analog lacking the 4′-F group
NF-κB = assay: Nuclear translocation of NF-κB in activated cells (EMSA); assay type: cell-based; conditions: human monocytes and other mammalian cells; activation with pro-inflammatory stimuli (e.g. TNF-α, LPS)
Protocol: NF-κB activity may also be measured in an electrophoretic mobility shift assay (EMSA) to assess the presence of NF-κB protein in the nucleus. The cells of interest are cultured to a density of 1×10^6/mL. The cells are harvested by centrifugation, washed in PBS without Ca^2+ and Mg^2+ and resuspended in PBS with Ca^2+ and Mg^2+ at 1×10^7 cells/mL. To examine the effect of compound on the activation of NF-κB, the cell suspensions are treated with various concentrations of drug or vehicle (DMSO, 0.1%) for 30 min. at 37° C. prior to stimulation with TNF-α (5.0 ng/mL) for an additional 15 min. Cellular and nuclear extracts are prepared follows. Briefly, at the end of the incubation period the cells (1×10^7 cells) are washed 2× in PBS without Ca^2+ and Mg^2+. The resulting cell pellets are resuspended in 20 uL of Buffer A (10 mM Hepes (pH 7.9), 10 mM KCl, 1.5 mM MgCl2, 0.5 mM dithiothreitol (DTT) and 0.1% NP-40) and incubated on ice for 10 min. The nuclei are pelleted by microcentrifugation at 3500 rpm for 10 min at 4° C. […] All samples are stored at −80° C. until analyzed. The protein concentration of the extracts is determined according to the method of Bradford (Bradford, 1976) with BioRad reagents.
The effect of compounds on transcription factor activation is assessed in an electrophoretic mobility shift assay (EMSA) using nuclear extracts from treated cells as described above. […]

IKK-β = target: T1, IKK-β (Homo sapiens, UniProt O14920); assay: IKK-β kinase assay (phosphorylation of N-terminal fragment of IκB-α); assay type: biochemical
T1 construct: GST; made in house
T1 sequence (O14920 1-756): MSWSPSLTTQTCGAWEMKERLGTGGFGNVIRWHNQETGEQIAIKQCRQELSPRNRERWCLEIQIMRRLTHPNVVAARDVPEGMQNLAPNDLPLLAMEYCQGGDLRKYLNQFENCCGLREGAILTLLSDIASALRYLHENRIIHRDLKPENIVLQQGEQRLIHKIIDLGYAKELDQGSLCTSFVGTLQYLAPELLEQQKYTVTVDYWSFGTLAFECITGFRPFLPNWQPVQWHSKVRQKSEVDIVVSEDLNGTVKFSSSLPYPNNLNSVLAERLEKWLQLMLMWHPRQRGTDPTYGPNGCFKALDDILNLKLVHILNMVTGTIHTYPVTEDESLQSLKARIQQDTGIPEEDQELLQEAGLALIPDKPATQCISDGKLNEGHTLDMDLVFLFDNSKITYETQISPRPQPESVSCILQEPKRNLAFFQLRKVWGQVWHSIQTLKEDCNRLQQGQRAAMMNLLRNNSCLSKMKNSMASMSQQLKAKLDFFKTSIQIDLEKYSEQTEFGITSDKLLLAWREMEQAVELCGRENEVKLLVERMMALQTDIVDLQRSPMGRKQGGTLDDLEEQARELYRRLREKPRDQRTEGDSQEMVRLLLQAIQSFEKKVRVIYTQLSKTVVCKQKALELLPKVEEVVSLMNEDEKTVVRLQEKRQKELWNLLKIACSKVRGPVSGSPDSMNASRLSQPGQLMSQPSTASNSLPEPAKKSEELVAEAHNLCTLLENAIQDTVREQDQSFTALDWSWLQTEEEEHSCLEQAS
Protocol: IKK-β was expressed as a GST-tagged protein, and its activity was assessed in a 96-well scintillation proximity assay (SPA). Briefly, IKK-β was diluted in assay buffer as described above (20 nM final), with various concentrations of compound or DMSO vehicle, 240 nM ATP and 200 nCi [γ-^33P]-ATP (10 mCi/mL, 2000 Ci/mmol; NEN Life Science Products, Boston, Mass.). The reaction was started with the addition of a biotinylated peptide comprising amino acids 15-46 of IκB-α (American Peptide) to a final concentration of 2.4 μM, in a total volume of 50 uL. The sample incubated for one hour a 30° C., followed by the addition of 150 uL of stop buffer (PBS w/o Ca^2+, Mg^2+, 0.1% Triton X-100 (v/v), 10 mM EDTA) containing 0.2 mg streptavidin-coated SPA PVT beads (Amersham Pharmacia Biotech, Piscataway, N.J.). The sample was mixed, incubated for 10 min. at room temperature, centrifuged (1000×g, 2 minutes), and measured on a Hewlett-Packard TopCount.

[4] = Oral bioavailability in rat; assay type: in vivo
IL-8 production = assay: Inhibition of IL-8 production through inhibition of NF-κB; assay type: cell-based; conditions: through the inhibition of NF-κB
Protocol: (§1) Effect of IKK-β inhibition on human monocyte stimulated eicosanoid and cytokine production was assessed as follows: Monocytes were isolated from heparinized whole blood by double gradient centrifugation as previously described. Isolated monocyte enriched PBMCs were then adhered to 24 well culture plates at 2×10^6 cells/mL in RPMI 1640 10% FBS (Hyclone, Logan, Utah) for 2 h. to further enrich the monocyte population. The media was then removed, cells washed once with RPMI 1640, and 1 mL RPMI 1640 10% FBS was added to the wells. Test compounds are added to the wells with a final vehicle concentration of 0.05% DMSO. Monocytes were activated by the addition of 200 ng/mL endotoxin (LPS; E. coli serotype 026:B6)(Sigma, St. Louis, Mo.) and incubated for 24 hrs. Cell-free supernates were analyzed by ELISA for TNF-α (EIA developed at SB), PGE2 (Cayman Chemical, Ann Arbor, Mich.), and IL-8 and IL-6 Biosource International, Camarillo, Calif.). Viability of the cells was determined by trypan blue exclusion.

[5] = system: LPS-stimulated human monocytes; assay: Pro-inflammatory mediator production from LPS-stimulated human monocytes; assay type: cell-based
Protocol: as §1

NC(=O)Nc1sc(-c2ccc(F)cc2)cc1C(N)=O [Formula I, 5-(4-fluoro-phenyl)-2-ureido-thiophene-3-carboxylic acid amide]
degradation of IκB-α (IκB-α): blocks the degradation of IκB-α
oral bioavailability [1]: orally bioavailable
pro-inflammatory mediator production [2]: inhibits pro-inflammatory mediator production
DMPK profile relative to the analog lacking the 4′-F group [3]: significantly improved DMPK profile
nuclear translocation of NF-κB (NF-κB): blocks
inhibition of phosphorylation of the N-terminal fragment of IκB-α by IKK-β (IKK-β): inhibit the phosphorylation of the N-terminal fragment of IκB-α by IKK-β
IKK-2 inhibitory activity relative to the analog lacking the 4′-F group (IKK-β; compared with analog lacking the 4′-F group): comparable IKK-2 inhibitory activity
oral bioavailability [4]: orally bioavailable
inhibition of IL-8 production (IL-8 production): has been demonstrated
pro-inflammatory mediator production [5]: inhibits pro-inflammatory mediator production
